Experimental data as given in patent publication US8334235B2, “Thiadiazolyloxyphenylamidines and use thereof as fungicides” (Bayer Cropscience AG, priority 2008, dated 2012).

Columns and labels:
Type in all cases: in vivo
Sphaerotheca fuliginea = assay: Sphaerotheca test (cucumber)/protective; details: Podosphaera fuliginea, 168 h, 500 ppm active substance, protective, evaluation 7 days after inoculation, read-out: degree of effectiveness
Method: • Solvent: 49 parts by weight of N,N-dimethylformamide • Emulsifier: 1 part by weight of alkylaryl polyglycol ether (polyoxyethylene (16) tristearylphenyl ether) To prepare a suitable active substance composition, 1 part by weight of active substance is mixed with the given amounts of solvents and emulsifier and the concentrate is diluted to the desired concentration using water. For the testing of protective effectiveness, young cucumber plants are sprayed with the active substance composition in the application rate given. One day after treatment, the plants are inoculated with a suspension of spores of Sphaerotheca fuliginea. The plants are then placed in a greenhouse at 70% relative humidity and a temperature of 23° C. Evaluation is carried out 7 days after the inoculation. In this connection, 0% means a degree of effectiveness corresponding to that of the control, while a degree of effectiveness of 100% means that no infestation is observed.

Puccinia triticina [1] = assay: Puccinia triticina test (wheat)/curative; details: 192 h, 500 ppm active substance, curative, evaluation 8 days after inoculation, read-out: degree of effectiveness
Method: (§1) • Solvent: 50 parts by weight of N,N-dimethylacetamide • Emulsifier: 1 part by weight of alkylaryl polyglycol ether (polyoxyethylene (16) tristearylphenyl ether)
(§2) To prepare a suitable active substance composition, 1 part by weight of active substance is mixed with the given amounts of solvent and emulsifier and the concentrate is diluted to the desired concentration using water.
For the testing of curative effectiveness, young plants are sprayed with a suspension of spores of Puccinia triticina. The plants remain in an incubation chamber at 20° C. and 100% relative humidity for 48 hours and are then sprayed with the active substance composition in the application rate given. The plants are placed in a greenhouse at a temperature of approximately 20° C. and a relative humidity of approximately 80%.
(§3) Evaluation is carried out 8 days after the inoculation. In this connection, 0% means a degree of effectiveness corresponding to that of the control, while a degree of effectiveness of 100% means that no infestation is observed.

Alternaria solani = assay: Alternaria test (tomato)/protective; details: 72 h, 100 ppm active substance, protective, evaluation 3 days after inoculation, read-out: degree of effectiveness
Method: • Solvents: 24.5 parts by weight of acetone • 24.5 parts by weight of dimethylacetamide • Emulsifier: 1 part by weight of alkylaryl polyglycol ether (polyoxyethylene (16) tristearylphenyl ether)
To prepare a suitable active substance composition, 1 part by weight of substance is mixed with the given amounts of solvents and emulsifier and the concentrate is diluted to the desired concentration using water.
For the testing of protective effectiveness, young plants are sprayed with the active substance composition in the application rate given. After the spray coating has been dried on, the plants are inoculated with an aqueous suspension of spores of Alternaria solani. The plants are then placed in an incubation chamber at approximately 20° C. and 100% relative humidity.
Evaluation is carried out 3 days after the inoculation. In this connection, 0% means a degree of effectiveness corresponding to that of the control, while a degree of effectiveness of 100% means that no infestation is observed.

Puccinia triticina [2] = assay: Puccinia triticina test (wheat)/protective; details: 192 h, 500 ppm active substance, protective, evaluation 8 days after inoculation, read-out: degree of effectiveness
Method: as §1, §2
For the testing of protective effectiveness, young plants are sprayed with the active substance composition in the application rate given. After the spray coating has been dried on, the plants are sprayed with a suspension of spores of Puccinia triticina. The plants remain in an incubation chamber at 20° C. and 100% relative humidity for 48 hours. The plants are placed in a greenhouse at a temperature of approximately 20° C. and a relative humidity of approximately 80%.
as §3

Structure (SMILES) | pest or weed control at 500 ppm (Sphaerotheca fuliginea) [%] | pest or weed control at 500 ppm (Puccinia triticina [1]) [%] | pest or weed control at 100 ppm (Alternaria solani) [%] | pest or weed control at 500 ppm (Puccinia triticina [2]) [%]
CCN(C)/C=N/c1cc(C)c(Oc2nc(COc3ccccc3Cl)ns2)cc1Cl [Compound 36, N′-[2-chloro-4-({3-[(2-chlorophenoxy)methyl]-1,2,4-thiadiazol-5-yl}oxy)-5-methylphenyl]-N-ethyl-N-methylimidoformamide] | ≥ 70 | ≥ 70 |  | 
CCN(C)/C=N/c1cc(C)c(Oc2nc(Cc3ccc(F)cc3F)ns2)cc1Cl [Compound 40, N′-(2-chloro-4-{[3-(2,4-difluorobenzyl)-1,2,4-thiadiazol-5-yl]oxy}-5-methylphenyl)-N-ethyl-N-methylimidoformamide] | ≥ 70 | ≥ 70 | ≥ 70 | ≥ 70
C=CCN(C)C=Nc1cc(C)c(Oc2nc(C(C)(C)C)ns2)cc1Cl [Compound 25, N′-{4-[(3-(tert-butyl)-1,2,4-thiadiazol-5-yl)oxy]-2-chloro-5-methylphenyl}-N-methyl-N-(prop-2-en-1-yl)imidoformamide] | ≥ 70 | ≥ 70 |  | ≥ 70
Cc1cc(/N=C\N2CCCCC2)c(Cl)cc1Oc1nc(/C=C/c2ccc(F)cc2)ns1 [Compound 16, 2-chloro-4-({3-[(E)-2-(4-fluorophenyl)ethenyl]-1,2,4-thiadiazol-5-yl}oxy)-5-methyl-N-[(Z)-piperidin-1-ylmethylidene]aniline] | ≥ 70 |  |  | 
CCN(C)/C=N/c1cc(C)c(Oc2nc(COc3cccc(Cl)c3)ns2)cc1Cl [Compound 35, N′-[2-chloro-4-({3-[(3-chlorophenoxy)methyl]-1,2,4-thiadiazol-5-yl}oxy)-5-methylphenyl]-N-ethyl-N-methylimidoformamide] | ≥ 70 | ≥ 70 |  | ≥ 70
CCCN(C)/C=N/c1cc(C)c(Oc2nc(C(C)(C)C)ns2)cc1Cl [Compound 24, N′-{4-[(3-(tert-butyl)-1,2,4-thiadiazol-5-yl)oxy]-2-chloro-5-methylphenyl}-N-methyl-N-propylimidoformamide] | ≥ 70 | ≥ 70 | ≥ 70 | ≥ 70
CCN(C)/C=N/c1cc(C)c(Oc2nc(COc3ccc(Cl)cc3)ns2)cc1Cl [Compound 22, N′-[2-chloro-4-({3-[(4-chlorophenoxy)methyl]-1,2,4-thiadiazol-5-yl}oxy)-5-methylphenyl]-N-ethyl-N-methylimidoformamide] | ≥ 70 |  |  | 
Cc1cc(/N=C\N2CCCCC2)c(Cl)cc1Oc1nc(C(C)(C)c2ccc(Cl)cc2)ns1 [Compound 12, 2-chloro-4-({3-[2-(4-chlorophenyl)propan-2-yl]-1,2,4-thiadiazol-5-yl}oxy)-5-methyl-N-[(Z)-piperidin-1-ylmethylidene]aniline] | ≥ 70 |  | ≥ 70 | 
Cc1cc(/N=C/N2CCCCC2)c(Cl)cc1Oc1nc(C2(Cl)CC2)ns1 [Compound 5, 2-chloro-4-{[3-(1-chlorocyclopropyl)-1,2,4-thiadiazol-5-yl]oxy}-5-methyl-N-[(E)-piperidin-1-ylmethylidene]aniline] | ≥ 70 | ≥ 70 |  | ≥ 70
Cc1cc(N=CN(C)C(C)C)c(Cl)cc1Oc1nc(C2(c3ccc(Cl)cc3)CC2)ns1 [Compound 20, N′-[2-chloro-4-({3-[1-(4-chlorophenyl)cyclopropyl]-1,2,4-thiadiazol-5-yl}oxy)-5-methylphenyl]-N-methyl-N-(propan-2-yl)imidoformamide] | ≥ 70 | ≥ 70 |  | ≥ 70
Cc1cc(N=CN(C)C(C)C)c(Cl)cc1Oc1nc(C2(Cl)CC2)ns1 [Compound 4, N′-(2-chloro-4-{[3-(1-chlorocyclopropyl)-1,2,4-thiadiazol-5-yl]oxy}-5-methylphenyl)-N-methyl-N-propan-2-ylimidoformamide] | ≥ 70 | ≥ 70 |  | ≥ 70
CCN(C)/C=N/c1cc(C)c(Oc2nc(COc3ccccc3)ns2)cc1Cl [Compound 37, N′-(2-chloro-5-methyl-4-{[3-(phenoxymethyl)-1,2,4-thiadiazol-5-yl]oxy}phenyl)-N-ethyl-N-methylimidoformamide] | ≥ 70 |  |  | 
CCN(C)/C=N/c1cc(C)c(Oc2nc(CCc3ccc(Cl)cc3)ns2)cc1Cl [Compound 9, N′-[2-chloro-4-({3-[2-(4-chlorophenyl)ethyl]-1,2,4-thiadiazol-5-yl}oxy)-5-methylphenyl]-N-ethyl-N-methylimidoformamide] | ≥ 70 | ≥ 70 |  | ≥ 70
CCN(C)C=Nc1cc(C)c(Oc2nc([C@@H]3C[C@H]3c3ccccc3)ns2)cc1Cl (relative stereo) [Compound 29, rel-N′-[2-chloro-5-methyl-4-({3-[(1R,2R)-2-phenylcyclopropyl]-1,2,4-thiadiazol-5-yl}oxy)phenyl]-N-ethyl-N-methylimidoformamide] | ≥ 70 | ≥ 70 |  | ≥ 70
Cc1cc(N=CN(C)C(C)C)c(Cl)cc1Oc1nc([C@@H]2C[C@H]2c2ccccc2)ns1 (relative stereo) [Compound 31, rel-N′-[2-chloro-5-methyl-4-({3-[(1R,2R)-2-phenylcyclopropyl]-1,2,4-thiadiazol-5-yl}oxy)phenyl]-N-methyl-N-(propan-2-yl)imidoformamide] | ≥ 70 | ≥ 70 |  | ≥ 70
Cc1cc(/N=C\N2CCCCC2)c(Cl)cc1Oc1nc(C2(c3ccc(Cl)cc3)CC2)ns1 [Compound 21, 2-chloro-4-({3-[1-(4-chlorophenyl)cyclopropyl]-1,2,4-thiadiazol-5-yl}oxy)-5-methyl-N-[(Z)-piperidin-1-ylmethylidene]aniline] | ≥ 70 |  |  | 
Cc1cc(N=CN(C)CC2CC2)c(Cl)cc1Oc1nc(C(C)(C)C)ns1 [Compound 26, N′-{4-[(3-(tert-butyl)-1,2,4-thiadiazol-5-yl)oxy]-2-chloro-5-methylphenyl}-N-(cyclopropylmethyl)-N-methylimidoformamide] | ≥ 70 | ≥ 70 |  | ≥ 70
CCN(C)C=Nc1cc(C)c(Oc2nc(Cc3cccc(C(F)(F)F)c3)ns2)cc1Cl [Compound 34, N′-[2-chloro-5-methyl-4-({3-[3-(trifluoromethyl)benzyl]-1,2,4-thiadiazol-5-yl}oxy)phenyl]-N-ethyl-N-methylimidoformamide] | ≥ 70 | ≥ 70 |  | ≥ 70
Cc1cc(/N=C/N2CCCCC2)c(Cl)cc1Oc1nc(C(C)c2ccc(Cl)cc2)ns1 (stereo not drawn) [Compound 7, 2-chloro-4-({3-[1-(4-chlorophenyl)ethyl]-1,2,4-thiadiazol-5-yl}oxy)-5-methyl-N-[(E)-piperidin-1-ylmethylidene]aniline] | ≥ 70 |  |  | 
CCN(C)/C=N/c1cc(C)c(Oc2nc(CCl)ns2)cc1Cl [Compound 19, N′-(2-chloro-4-{[3-(chloromethyl)-1,2,4-thiadiazol-5-yl]oxy}-5-methylphenyl)-N-ethyl-N-methylimidoformamide] |  | ≥ 70 |  | 
CCN(C)/C=N/c1cc(C)c(Oc2nc(C(C)(C)Cc3ccccc3)ns2)cc1Cl [Compound 28, N′-(2-chloro-5-methyl-4-{[3-(2-methyl-1-phenylpropan-2-yl)-1,2,4-thiadiazol-5-yl]oxy}phenyl)-N-ethyl-N-methylimidoformamide] | ≥ 70 |  | ≥ 70 | ≥ 70
